Laboratory results from patent publication US20100159093A1, “METHOD OF TREATING FOODSTUFF” (priority 2008, published 2010).

What was measured:
[1] = tested on: aerobic spores, such as B. cereus; experiment: Aerobic spore count in raw milk under nitrogen gas; assay type: cell-based; details: 12.0° C., N1 environment (120 ml/min), Example 5, FIG. 5F
Procedure: With the device shown in FIG. 1, the effect of nitrogen gas on the natural microflora in raw milk (volume approximately 125 ml) was examined by replacing the air (control) in an open vessel (volume approximately 250 ml) at a constant temperature, with a flow-through of 100% nitrogen gas (purity 99.999%, manufacturer AGA) at two different flow-through rates: N1=120 ml/min, N2=40 ml/min.
The temperature of the raw milk in the sample bottles was adjusted by means of the thermostat (14) of the water bath to bring the temperature of the milk to 6.0° C., 7.0° C. or 12.0° C. The temperature variation in the vessel was less than ±0.1° C.
The effect of nitrogen gas on the growth of the microflora in a raw milk sample at 12.0° C. Two flow-through rates of the nitrogen gas were used in the study: (▴) 40 ml/min and ([…]) 120 ml/min. […] The following bacterial levels were determined in the samples:
FIG. 5A: Total bacteria count (p.m.y./ml) FIG. 5B: Total number of psychrotrophs (p.m.y./ml) FIG. 5C: Total number of proteolytic bacteria (p.m.y./ml) FIG. 5D: Total number of lipolytic bacteria (p.m.y./ml) FIG. 5E: Total number of bacteria producing phospholipase (p.m.y./ml). […]

[2] = tested on: psychrotrophic P. fluorescens strain; details: sterile milk, 4° C., Skura et al.; cited from earlier work

N#N [nitrogen gas]
formation (sporulation) of aerobic spores [1]: does not increase the formation (sporulation) | growth of P. fluorescens strain versus control culture in normal air [2]: grew slower | proteolytic activity of the strain [2]: very low compared with that of the control culture
